Reference: ChEMBL document CHEMBL1129353, “Synthesis and biological evaluation of N alpha-(4-amino-4-deoxy-10-methylpteroyl)-DL-4,4-difluoroornithine” (J Med Chem, 1996)

Key:
[1] = Dissociation constant was evaluated; type: physicochemical
CCRF-CEM [2] = experiment: Inhibitory activity against growth of CCRF-CEM human leukemia cells. value mentioned is from literature; type: functional; settings: read-out: ED50
Dihydrofolate reductase [3] = molecular target: T1, Dihydrofolate reductase (Homo sapiens, UniProt P00374); experiment: Inhibitory concentration against dihydrofolate reductase enzyme (DHFR) enzyme isolated from CCRF-CEM human leukemia cells.; type: cell-free
T1 sequence (P00374 whole entry): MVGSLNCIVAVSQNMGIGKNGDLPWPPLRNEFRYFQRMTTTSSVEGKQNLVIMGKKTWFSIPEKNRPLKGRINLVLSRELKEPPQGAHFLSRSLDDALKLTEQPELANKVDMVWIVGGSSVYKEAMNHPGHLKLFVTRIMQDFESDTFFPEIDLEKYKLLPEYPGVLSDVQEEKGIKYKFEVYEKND

Dihydrofolate reductase [4] = molecular target: T1, Dihydrofolate reductase; experiment: Inhibitory concentration against dihydrofolate reductase enzyme (DHFR) enzyme isolated from CCRF-CEM human leukemia cells. value mentioned is from literature
CCRF-CEM [5] = experiment: cells; settings: Homo sapiens, read-out: ED50
[6] = molecular target: T2, Folylpolyglutamate synthase, mitochondrial (Homo sapiens, UniProt Q05932); experiment: Inhibitory concentration against human Folyl-polyglutamate synthase isolated from CCRF-CEM human leukemia cells.; type: cell-free
T2 sequence (Q05932 whole entry): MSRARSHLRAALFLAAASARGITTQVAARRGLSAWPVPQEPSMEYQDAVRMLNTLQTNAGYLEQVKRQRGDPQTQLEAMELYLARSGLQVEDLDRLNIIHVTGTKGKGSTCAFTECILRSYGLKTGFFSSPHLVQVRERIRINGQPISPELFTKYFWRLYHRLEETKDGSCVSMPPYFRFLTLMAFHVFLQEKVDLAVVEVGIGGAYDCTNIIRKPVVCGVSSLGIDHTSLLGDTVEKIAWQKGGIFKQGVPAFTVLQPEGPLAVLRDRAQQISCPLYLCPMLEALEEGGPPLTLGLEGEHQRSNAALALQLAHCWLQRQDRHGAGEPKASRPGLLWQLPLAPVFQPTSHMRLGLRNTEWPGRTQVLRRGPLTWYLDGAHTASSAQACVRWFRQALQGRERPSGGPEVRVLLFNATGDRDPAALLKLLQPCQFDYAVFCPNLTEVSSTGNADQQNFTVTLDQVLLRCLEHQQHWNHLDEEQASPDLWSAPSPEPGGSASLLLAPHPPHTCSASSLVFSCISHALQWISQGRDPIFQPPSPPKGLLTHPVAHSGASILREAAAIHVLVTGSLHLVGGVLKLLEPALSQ

[7] = molecular target: T2, Folylpolyglutamate synthase, mitochondrial; experiment: Inhibitory activity against mammalian Folyl-polyglutamate synthase

| Compound | pKa [1] | EC50 (CCRF-CEM [2]) | IC50 (Dihydrofolate reductase [3]) | IC50 (Dihydrofolate reductase [4]) | EC50 (CCRF-CEM [5]) | IC50 [6] | Ki [7] |
| --- | --- | --- | --- | --- | --- | --- | --- |
| NCC(F)(F)CC(N)C(=O)O (stereo unspecified) | 6.9 |  |  |  |  |  |  |
| CN(Cc1cnc2nc(N)nc(N)c2n1)c1ccc(C(=O)NC(CCCN)C(=O)O)cc1 (stereo unspecified) | 10.8 | 740 nM | 2.5 nM | 1 nM | 740 nM | 33000 nM |  |
| NCCCC(NC(=O)c1ccc(NCC2CNc3nc(N)[nH]c(=O)c3N2)cc1)C(=O)O (stereo unspecified) |  |  |  |  |  |  | 200 nM |
| CN(Cc1cnc2nc(N)nc(N)c2n1)c1ccc(C(=O)NC(CC(F)(F)CN)C(=O)O)cc1 (stereo unspecified) |  |  | 1.3 nM |  | 93 nM | > 300000 nM |  |
